Source: patent US8580793B2, “Use of kinase inhibitor for the treatment of thymoma” (Nerviano Medical Services S.r.l., priority 2009, dated 2013)

System: thymic carcinoma
Assay: Phase I clinical trial, objective tumor response in thymic carcinoma patients (RECIST)
Type: in vivo, human
Conditions: 150 mg daily; for decrease in the sum of target lesions compared to baseline: patient; for tumor response as per RECIST criteria: thymic carcinoma patient, 4 days on/3 days off for 3 weeks in 4-week cycle
Source text: An objective tumor response was obtained in a patient, first diagnosed with thymic carcinoma in May 2002 and having had their third progression of disease with metastases to lung in July 2007, entered the phase I clinical trial in September 2007. […] The patient, prior to be treated in the clinical trial, received other treatments for their thymic carcinoma, as follows: from January 2005 to June 2005: Adriamycin®, Cytoxan®, Cisplatin; from February 2006 to May 2006: Ifosfamide; from October 2006 to June 2007: Taxol®, Carboplatin; from June 2007 to July 2007: Adriamycin®, Cytoxan®, Vincristine. The patient had also surgery in May 2002 and radiotherapy in July 2002 and July 2006.
Another objective tumor response was obtained in a patient, first diagnosed with thymic carcinoma in May 2006, becoming metastatic to lung, bones and peritoneum in October 2007. The patient started treatment in the phase I clinical trial in December 2008. […] The patient, prior to be treated in the clinical trial, received one line of chemotherapy (cisplatin/gemcitabine) from November 2007 to March 2008; they had surgery in May 2006 and radiotherapy in September 2006.

CNC(=O)c1nn(C)c2c1C(C)(C)Cc1cnc(Nc3ccc(N4CCN(C)CC4)cc3)nc1-2 [compound of formula (I), 8-[4-(4-methyl-piperazin-1-yl)-phenylamino]-1,4,4-trimethyl-4,5-dihydro-1H-pyrazolo[4,3-h]quinazoline-3-carboxylic acid methylamide]
decrease in the sum of target lesions compared to baseline (PR confirmed one month later): 40%
decrease in the sum of target lesions compared to baseline (after 6 cycles): 30%
decrease in the sum of target lesions compared to baseline (after 10 cycles): 31.2%
decrease in the sum of target lesions compared to baseline (documented until cycle 13): 37.6%
tumor response as per RECIST criteria (after 6 cycles): partial tumor response (PR)
tumor response as per RECIST criteria (after 10 cycles): partial tumor response (PR)
